From article PMC10180065, “Mechanistic Studies of Arene–Ruthenium(II) Complexes with Carbothioamidopyrazoles as Alternative Cancer Drugs” (Molecules, 2023)

Experiments:
HCT116 = assay: MTT cytotoxicity, HCT116; type: cell-based, human; details: 48 h incubation, read-out: Cytotoxic effect, IC50
Protocol: Cytotoxicity was evaluated against fifteen adherent human cancer cell lines using the MTT test: colorectal adenocarcinoma cells Caco2 (ATCC® HTB-37™), colorectal adenocarcinoma cells HT29 (ATCC® HTB-38™), colon colorectal carcinoma HCT116 (ATCC® CCL-247™), colon adenocarcinoma COLO205 (ATCC® CCL-222™), colorectal adenocarcinoma SW620 (ATCC® CCL-227™), colorectal adenocarcinoma grade IV LoVo (ATCC® CCL-229™), hepatocellular carcinoma Hep 3b (ATCC® HB-8064™), endometrium adenocarcinoma HEC1A (ATCC® HTB-112™), Ishikawa (99040201; Sigma–Aldrich Sigma, St. Louis, MO, USA), cervical adenocarcinoma cells HeLa (ATCC® CCL-2™), lung epithelial carcinoma A549 (ATCC® CRM-CCL-185™), breast epithelial adenocarcinoma cell positive for estrogen and progesterone receptors MCF7 (ATCC® HTB-22™) and negative for expression of estrogen receptor HCC38 (ATCC® CRL-2314™), acute promyelocytic leukemia HL-60 (ATCC® CCL-240™), skin melanoma WM115 (ATCC® CRL-1676™), and 1 suspension cancer cell line: acute lymphoblastic leukemia NALM6 (purchased from the German Collection of Microorganisms and Cell Cultures). […]
The cytotoxicity was tested by a standard MTT [3-(4,5-dimethylthiazol-2-yl)-2,5-diphenyltetrazolium bromide] […] The anticancer activity of the investigated compounds was evaluated in vitro on the basis of their ability to inhibit the proliferation of various cancer cells. […]

SW620 = assay: MTT cytotoxicity, SW620; type: cell-based, human; details: 48 h incubation, read-out: Cytotoxic effect, IC50
Protocol: (§1) Cytotoxicity was evaluated against fifteen adherent human cancer cell lines using the MTT test: colorectal adenocarcinoma cells Caco2 (ATCC® HTB-37™), colorectal adenocarcinoma cells HT29 (ATCC® HTB-38™), colon colorectal carcinoma HCT116 (ATCC® CCL-247™), colon adenocarcinoma COLO205 (ATCC® CCL-222™), colorectal adenocarcinoma SW620 (ATCC® CCL-227™), colorectal adenocarcinoma grade IV LoVo (ATCC® CCL-229™), hepatocellular carcinoma Hep 3b (ATCC® HB-8064™), endometrium adenocarcinoma HEC1A (ATCC® HTB-112™), Ishikawa (99040201; Sigma–Aldrich Sigma, St. Louis, MO, USA), cervical adenocarcinoma cells HeLa (ATCC® CCL-2™), lung epithelial carcinoma A549 (ATCC® CRM-CCL-185™), breast epithelial adenocarcinoma cell positive for estrogen and progesterone receptors MCF7 (ATCC® HTB-22™) and negative for expression of estrogen receptor HCC38 (ATCC® CRL-2314™), acute promyelocytic leukemia HL-60 (ATCC® CCL-240™), skin melanoma WM115 (ATCC® CRL-1676™), and 1 suspension cancer cell line: acute lymphoblastic leukemia NALM6 (purchased from the German Collection of Microorganisms and Cell Cultures). HT29, NALM6, HCC-38 and HL-60 cells were cultured in RPMI 1640 medium (Thermo Fisher Scientific, Waltham, MA, USA) supplemented with 10% fetal bovine serum and antibiotic (gentamicin 25 μg ml^−1) (Gibco, Grand Island, New York, NY, USA). For the remaining tumor cell lines, Dulbecco’s minimal essential medium (DMEM, Lonza, Visp, Switzerland) supplemented with 10% fetal bovine serum and antibiotic instead of RPMI 1640 was used. In addition, Human Microvascular Endothelial Cells (HMEC1), which were obtained from the American Type Culture Collection (Manassas, VA, USA), were used as a model of normal cells. HMEC-1 were cultured in MCDB131 medium (Corning Life Sciences, Corning, NY, USA), supplemented with 10% fetal bovine serum, 10 ng/mL Epidermal Growth Factor (Millipore, Burlington, MA, USA) and 10 mM glutamine (Corning Life Sciences). All cells were grown at 37 °C in humidified atmosphere of 5% CO2 in air. The exponential growth of cells was maintained by regular passaging at 90% confluence three times a week using 0.025% trypsin/EDTA (Gibco, Grand Island, New York, NY, USA).
(§2) The cytotoxicity was tested by a standard MTT [3-(4,5-dimethylthiazol-2-yl)-2,5-diphenyltetrazolium bromide] (Sigma, St. Louis, MO, USA) microplate cell viability assay. The anticancer activity of the investigated compounds was evaluated in vitro on the basis of their ability to inhibit the proliferation of various cancer cells. Exponentially growing cells were seeded a day before the experiment into a 96-well microplate (Nunc, Roskilde, Denmark) at a density up to 6–8 × 10^3 cells/mL (depending on the cell line) and exposed to the test compounds at a wide range of concentrations for 48 h. Subsequently, various concentrations of the studied compounds (10^−7–10^−5 M) freshly prepared in DMSO (final concentration of <0.1% DMSO) and diluted with complete culture medium were added. After 48 h incubation, the cells were immediately subjected to a cell viability assay. At this time point, the number of viable cells in each well was estimated by the MTT test. Briefly, 50 µL (5 mg/mL final concentration) of MTT was added to each microplate well. This procedure was then followed by a three- to four-hour incubation at 37 °C. After incubation, MTT solution was replaced with 100 µL DMSO/well, which solubilized the formazan crystals formed by the dehydrogenases of metabolically active cells. Purple formazan absorbance was measured spectrophotometrically at 570 nm.

Colo205 = assay: MTT cytotoxicity, Colo205; type: cell-based, human; details: 48 h incubation, read-out: Cytotoxic effect, IC50
Protocol: as §1, §2

Hep 3b = assay: MTT cytotoxicity, Hep 3b; type: cell-based, human; details: 48 h incubation, read-out: Cytotoxic effect, IC50
Protocol: as §1, §2

MCF7 = assay: MTT cytotoxicity, MCF7; type: cell-based, human; details: 48 h incubation, read-out: Cytotoxic effect, IC50
Protocol: as §1, §2

HEC1A [1] = assay: MTT cytotoxicity, HEC1A; type: cell-based, human; details: 48 h incubation, read-out: Cytotoxic effect, IC50
Protocol: as §1, §2

WM115 = assay: MTT cytotoxicity, WM115; type: cell-based, human; details: 48 h incubation, read-out: Cytotoxic effect, IC50
Protocol: as §1, §2

Ishikawa = assay: MTT cytotoxicity, Ishikawa; type: cell-based, human; details: 48 h incubation, read-out: Cytotoxic effect, IC50
Protocol: as §1, §2

HT29 = assay: MTT cytotoxicity, HT29; type: cell-based, human; details: 48 h incubation, read-out: Cytotoxic effect, IC50
Protocol: as §1, §2

NALM6 = assay: MTT cytotoxicity, NALM6; type: cell-based, human; details: 48 h incubation, read-out: Cytotoxic effect, IC50
Protocol: as §1, §2

A549 = assay: MTT cytotoxicity, A549; type: cell-based, human; details: 48 h incubation, read-out: Cytotoxic effect, IC50
Protocol: as §1, §2

[2] = tested on: human microvascular endothelial cell line HMEC1; assay: MTT cytotoxicity, normal endothelial cells HMEC1; type: cell-based; details: for IC50: HMEC1 normal endothelial cells, 48 h incubation, read-out: Cytotoxic effect, IC50; for IC50 for HMEC-1 higher than for cancer cells (selectivity): HMEC-1 vs cancer cells
Protocol: as §1, §2

HEC1A [3] = assay: Mitochondrial potential, JC-1 probe, HEC1A; type: cell-based, human; details: IC50 concentration
Protocol: Cells (10 × 10^3/well) were seeded in black 96-well plates and grown for 24 h to reach the log phase. […] After removing the medium, the cell monolayer was washed twice with PBS solution and 50 μL of the JC-1 probe at a final concentration of 5 μM was added to the wells of the plate. The cells were incubated with the dye for 30 min in a CO2 incubator. Subsequently, the changes in the fluorescence of monomers (λex = 485 nm and λem = 525 nm) and aggregates (λex = 530 nm and λem = 590 nm) using JC-1 were monitored. The results of the tested trials were presented as the ratio of fluorescence of aggregates and JC1 monomers as a percentage of control values, which was assumed to be 100%.

HCC38 = assay: MTT cytotoxicity, HCC38; type: cell-based, human; details: 48 h incubation, read-out: Cytotoxic effect, IC50
Protocol: as §1, §2

HL60 = assay: MTT cytotoxicity, HL60; type: cell-based, human; details: 48 h incubation, read-out: Cytotoxic effect, IC50
Protocol: as §1, §2

PARP1 = assay: Cleaved PARP level (ELISA), WM115 cells; type: cell-based, human; details: WM115, 24 h at IC50 concentration
Protocol: Cells (1 × 10^6) were seeded in 35 mm dishes and cultured for 24 h in the appropriate medium until they reached log phase growth. […] After incubation, the medium was removed, the cells were washed with PBS solution and trypsinized. The harvested cell pellet was lysed in RIPA buffer (50 mM Tris-HCL, pH 8.0, with 150 mM sodium chloride, 1.0% Igepal CA-630 (NP-40), 0.5% sodium deoxychlorate, and 0.1% sodium dodecyl sulfate) with protease inhibitor (phenylmethylsulfonyl fluoride) (Sigma-Aldrich Sigma, St. Louis, MO, USA). The level of cleaved PARP was estimated using the PARP Cleaved [214/215] ELISA kit (Invitrogen, Waltham, MA, USA) according to the protocol described in the manufacturer’s instructions.

Lipophilicity by RP-TLC = type: physicochemical; design: key: RM = log(1/Rf − 1), Rf = a/b; details: eluent AcCN: H2O at 30–70% v/v, 22 °C
Protocol: All the experimental solutions of standard substances (0.1 mg/mL) were prepared by dissolving ligands (1a–1d) or ruthenium complexes (2a/3a–2d/3d) in ethanol. Commercially-available octadecyl-modified silica aluminum sheets (20 × 20 cm) were cut into 5 × 10 cm plates. The plates were manually spotted with 1.0 μL of freshly prepared solutions using automatic pipets, 5 mm from each edge. The chromatograms for all compounds (1a/2a/3a–1d/2d/3d) were developed using a horizontal developing chamber and the solvent migration distance was about 4.5 cm. The plates were visually inspected under UV light at 254 nm. Each zone was clearly marked and its distance was manually measured. The RP-TLC analyses of lipophilicity were performed at ambient temperature (22 °C). In this experiment, all measurements were performed in triplicate and the obtained results were used in further calculations. The acetonitrile and water mixtures for ligands 1a–1d and arene–ruthenium(II) complexes 2a/3a–2d/3d were used as mobile phases, with […] content increasing in the range of 30–70% v/v, at 5% intervals. Values of the chromatographic retention coefficient Rf (as shown Formula (1)) and RM (as shown Formula (2)), based on received chromatograms, were calculated and converted as follows:(1) Rf=a/b (2) RM=log1/Rf−1

Hela = assay: MTT cytotoxicity, Hela; type: cell-based, human; details: 48 h incubation, read-out: Cytotoxic effect, IC50
Protocol: as §1, §2

LoVo = assay: MTT cytotoxicity, LoVo; type: cell-based, human; details: 48 h incubation, read-out: Cytotoxic effect, IC50
Protocol: as §1, §2

Caco2 = assay: MTT cytotoxicity, Caco2; type: cell-based, human; details: 48 h incubation, read-out: Cytotoxic effect, IC50
Protocol: as §1, §2

[4] = pH dependent stability of the complexes (UV–Vis); type: physicochemical; details: 24 h and 48 h
Protocol: The stability measurements were performed on a UV 1800 Shimadzu spectrophotometer (Kyoto, Japan) at room temperature. The complexes 2d and 3d were tested for the stabilities in buffer Na2HPO4 (pH 4 and 8). UV–Vis spectra were recorded hourly for 48 h at 22 °C. The spectra were recorded in the range of 200–800 nm over a time course of 0, 24, and 48 h.

Lipophilicity, RM (Lipophilicity by RP-TLC)	SMILES	IC50 (SW620) [µM]	IC50 (Colo205) [µM]	IC50 (Hep 3b) [µM]	IC50 (MCF7) [µM]	IC50 (HEC1A [1]) [µM]	IC50 (WM115) [µM]	IC50 (Ishikawa) [µM]	IC50 (HT29) [µM]	IC50 (NALM6) [µM]	IC50 (A549) [µM]	IC50 [2] [µM]	IC50 for HMEC-1 higher than for cancer cells (selectivity) [2]	IC50 (HCC38) [µM]	IC50 (HL60) [µM]	increase in level of PARP1 degradation compared to controls (PARP1)	IC50 (Hela) [µM]	IC50 (LoVo) [µM]	IC50 (Caco2) [µM]	other results
–	Cl.[Cl-].[Cl-].[Cl-].[Ru+3].c1c[nH]cn1.c1c[nH]cn1 [NAMI-A, reference compound]	> 200	> 200	> 200	14.1 ± 1.5	> 200	> 200	> 200	> 200	> 200	–	–	–	–	–	–	–	–	–	IC50 (HCT116): > 200 µM
2.73	CCc1cc(CC)n(C(N)=S)n1.Cc1ccc(C(C)C)cc1.F[P-](F)(F)(F)(F)F.[Cl-].[Ru+2] [3b]	78.8 ± 7.4	91.6 ± 1.6	62.4 ± 2.7	132 ± 5.3	40.1 ± 2.1	51.7 ± 5.3	121 ± 3.7	123 ± 3.7	18.5 ± 2.3	162 ± 7.9	135 ± 6.7	3–5 times	> 200	52.9 ± 2.1	~140%	101 ± 6.7	99.1 ± 9.4	82.4 ± 8.4	decrease in mitochondrial potential (JC-1) (HEC1A [3]): ~50%
1.64	Cc1cc(O)n(C(N)=S)n1.Cc1ccc(C(C)C)cc1.[Cl-].[Cl][Ru+] [2d]	> 200	> 200	> 200	> 200	67.8 ± 6.1	8 ± 0.9	100 ± 6.7	168 ± 7.5	> 200	> 200	163 ± 5.9	3–5 times	> 200	> 200	approximately 115%	111 ± 1.7	> 200	> 200	Stability, UV–Vis absorption maxima ([4]; pH 4 buffer): did not change; Stability, UV–Vis absorption maxima ([4]; pH 8 buffer): loss absorption
